{
  "source": "ChEMBL document CHEMBL6177948",
  "about": "“Discovery of potential Leonurine-based therapeutic lead MJ210 attenuates Parkinson's disease pathogenesis via NF-κB and MAPK pathways: Mechanistic insights from in vitro and in vivo rotenone models” (Eur J Med Chem, 2025)",
  "key": {"[1]": {"tested_on": "SH-SY5Y", "assay": "Neuroprotective activity against rotenone-induced ROS formation in human SH-SY5Y cells assessed as decrease in ROS level at 5 uM preincubated with compound for 24 hrs followed by rotenone addition by H2DCFDA staining based fluorescence microscopic analysis", "format": "functional, cell-based"}, "[2]": {"tested_on": "SH-SY5Y", "assay": "Anti-apoptotic activity in rotenone-induced human SH-SY5Y cells assessed as increase in Bcl-xL expression by Western blotting analysis", "format": "functional, cell-based"}, "[3]": {"tested_on": "SH-SY5Y", "assay": "Anti-apoptotic activity in rotenone-induced human SH-SY5Y cells assessed as reduction in Caspase-3 expression by Western blotting analysis", "format": "functional, cell-based"}, "[4]": {"tested_on": "SH-SY5Y", "assay": "(§1) Reversal of rotenone-induced mitochondrial membrane depolarization in human SH-SY5Y cells assessed as increase in JC-10 aggregation by measuring red fluorescence at 5 uM preincubated with compound for 24 hrs followed by rotenone addition and measured after 24 hrs by JC-10 based fluorescence microscopic analysis", "format": "functional, cell-based"}, "[5]": {"tested_on": "SH-SY5Y", "assay": "Reversal of rotenone-induced mitochondrial membrane depolarization in human SH-SY5Y cells assessed as increase in aggregates to monomer ratio at 5 uM preincubated with compound for 24 hrs followed by rotenone addition and measured after 24 hrs by JC-10 based fluorescence microscopic analysis", "format": "functional, cell-based", "details": "time 48.0 hrs"}, "[6]": {"tested_on": "SH-SY5Y", "assay": "as §1, with “as decrease” for “as increase”, “JC-10 monomers” for “JC-10 aggregation”, “measuring green” for “measuring red”", "format": "functional, cell-based"}, "[7]": {"tested_on": "SH-SY5Y", "assay": "Anti-inflammatory activity against rotenone-induced human SH-SY5Y cells assessed as reduction in CoX-2 mRNA expression level by RT-qPCR analysis", "format": "functional, cell-based"}, "[8]": {"tested_on": "SH-SY5Y", "assay": "Anti-inflammatory activity against rotenone-induced human SH-SY5Y cells assessed as reduction in iNOS mRNA expression level by RT-qPCR analysis", "format": "functional, cell-based"}, "[9]": {"tested_on": "SH-SY5Y", "assay": "Anti-inflammatory activity against rotenone-induced human SH-SY5Y cells assessed as reduction in IL-1beta mRNA expression level by RT-qPCR analysis", "format": "functional, cell-based"}, "[10]": {"tested_on": "SH-SY5Y", "assay": "Inhibition of MAPK signaling pathway in rotenone-induced human SH-SY5Y cells assessed as reduction in ERK1/2 phosphorylation level by ELISA", "format": "cell-based"}, "[11]": {"tested_on": "SH-SY5Y", "assay": "Inhibition of MAPK signaling pathway in rotenone-induced human SH-SY5Y cells assessed as reduction in P-38 phosphorylation level by ELISA", "format": "cell-based"}, "[12]": {"assay": "Stability in human serum assessed as compound remaining measured after 96 hrs by RP-HPLC analysis relative to control", "format": "ADME, cell-free", "details": "read-out: Stability"}, "[13]": {"tested_on": "Rattus norvegicus", "assay": "Anti-parkinson activity in rotenone-induced male Wistar rat model assessed as prevention of rotenone-induced dopaminergic neuronal death at 5 mg/kg, ip by immunoblotting analysis", "format": "functional, organism-based"}, "[14]": {"tested_on": "Rattus norvegicus", "assay": "Improvement of motor dysfunction in rotenone-induced male Wistar rat model assessed as reduction in number of falls at 5 mg/kg, ip pretreated with compound every alternative days followed by rotenone addition and measured after 42 days by rotarod test", "format": "functional, organism-based", "details": "time 42.0 day"}, "[15]": {"tested_on": "Rattus norvegicus", "assay": "Anti-parkinson activity in rotenone-induced male Wistar rat model assessed as improvement in bradykinesia at 5 mg/kg, ip pretreated with compound every alternative days followed by rotenone addition and measured after 42 days by pole test", "format": "functional, organism-based", "details": "time 42.0 day"}, "[16]": {"tested_on": "Rattus norvegicus", "assay": "Anti-parkinson activity in rotenone-induced male Wistar rat model assessed as increase in cage lid hold time at 5 mg/kg, ip pretreated with compound every alternative days followed by rotenone addition and measured after 42 days by inverted grid test", "format": "functional, organism-based", "details": "time 42.0 day"}, "[17]": {"tested_on": "Rattus norvegicus", "assay": "Improvement in rotenone-induced depression-like behavior in male Wistar rat model assessed as improvement in sucrose intake at 5 mg/kg, ip pretreated with compound every alternative days followed by rotenone addition and measured after 42 days by sucrose preference test", "format": "functional, organism-based", "details": "time 42.0 day"}, "[18]": {"tested_on": "Rattus norvegicus", "assay": "Anti-parkinson activity in rotenone-induced neurodegeneration in male Wistar rat model assessed as minimal neuronal loss in striatum at 5 mg/kg, ip pretreated with compound every alternative days followed by rotenone addition and measured after 42 days by H and E staining based analysis", "format": "functional, organism-based", "details": "time 42.0 day"}, "[19]": {"tested_on": "Rattus norvegicus", "assay": "Anti-parkinson activity in rotenone-induced neurodegeneration in male Wistar rat model assessed as minimal neuronal loss in substantia nigra at 5 mg/kg, ip pretreated with compound every alternative days followed by rotenone addition and measured after 42 days by H and E staining based analysis", "format": "functional, organism-based", "details": "time 42.0 day"}, "[20]": {"tested_on": "Rattus norvegicus", "assay": "Anti-parkinson activity in rotenone-induced neurodegeneration in male Wistar rat model assessed as reduced edema in striatum at 5 mg/kg, ip pretreated with compound every alternative days followed by rotenone addition and measured after 42 days by H and E staining based analysis", "format": "functional, organism-based", "details": "time 42.0 day"}, "[21]": {"tested_on": "Rattus norvegicus", "assay": "Anti-parkinson activity in rotenone-induced neurodegeneration in male Wistar rat model assessed as reduced edema in substantia nigra at 5 mg/kg, ip pretreated with compound every alternative days followed by rotenone addition and measured after 42 days by H and E staining based analysis", "format": "functional, organism-based", "details": "time 42.0 day"}, "[22]": {"tested_on": "Rattus norvegicus", "assay": "Anti-parkinson activity in rotenone-induced neurodegeneration in male Wistar rat model assessed as decrease neuronal damage in striatum at 5 mg/kg, ip pretreated with compound every alternative days followed by rotenone addition and measured after 42 days by Nissl staining based analysis", "format": "functional, organism-based", "details": "time 42.0 day"}, "[23]": {"tested_on": "Rattus norvegicus", "assay": "Anti-parkinson activity in rotenone-induced neurodegeneration in male Wistar rat model assessed as reduction in pyknotic neurons in cortex at 5 mg/kg, ip pretreated with compound every alternative days followed by rotenone addition and measured after 42 days by Nissl staining based analysis", "format": "functional, organism-based", "details": "time 42.0 day"}, "[24]": {"tested_on": "Rattus norvegicus", "assay": "Anti-parkinson activity in rotenone-induced neurodegeneration in male Wistar rat model assessed as reduction in pyknotic neurons in striatum at 5 mg/kg, ip pretreated with compound every alternative days followed by rotenone addition and measured after 42 days by Nissl staining based analysis", "format": "functional, organism-based", "details": "time 42.0 day"}, "[25]": {"tested_on": "Rattus norvegicus", "assay": "Anti-parkinson activity in rotenone-induced neurodegeneration in male Wistar rat model assessed as reduction in necrosis in striatum at 5 mg/kg, ip pretreated with compound every alternative days followed by rotenone addition and measured after 42 days by Nissl staining based analysis", "format": "functional, organism-based", "details": "time 42.0 day"}, "[26]": {"tested_on": "Rattus norvegicus", "assay": "In vivo inhibition of MAPK signaling pathway in rotenone-induced parkinson disease male Wistar rat model assessed as reduction in P-38 phosphorylation level in substantia nigra at 5 mg/kg, ip pretreated with compound every alternative days followed by rotenone addition and measured after 42 days by Western blotting analysis", "format": "functional, organism-based", "details": "time 42.0 day"}, "[27]": {"tested_on": "Rattus norvegicus", "assay": "Anti-inflammatory activity in rotenone-induced male Wistar rat model assessed as reduction in IL-1beta expression level in striatum at 5 mg/kg, ip pretreated with compound every alternative days followed by rotenone addition and measured after 42 days by ELISA", "format": "functional, organism-based", "details": "time 42.0 day"}, "[28]": {"tested_on": "Rattus norvegicus", "assay": "Anti-inflammatory activity in rotenone-induced male Wistar rat model assessed as reduction in COX2 expression level in substantia nigra at 5 mg/kg, ip pretreated with compound every alternative days followed by rotenone addition and measured after 42 days by ELISA", "format": "functional, organism-based", "details": "time 42.0 day"}, "[29]": {"tested_on": "Rattus norvegicus", "assay": "Anti-inflammatory activity in rotenone-induced male Wistar rat model assessed as reduction in PGE2 expression level in striatum at 5 mg/kg, ip pretreated with compound every alternative days followed by rotenone addition and measured after 42 days by ELISA", "format": "functional, organism-based", "details": "time 42.0 day"}, "[30]": {"assay": "Toxicity in male Wistar rat assessed as change in cellular structure of spleen at 1 to 10 mg/kg by H and E staining based analysis", "format": "organism-based", "details": "in vivo, dose 1-10 mg/kg"}, "[31]": {"tested_on": "Rattus norvegicus", "assay": "Anti-inflammatory activity in rotenone-induced male Wistar rat model assessed as reduction in phosphorylated NF-kappaB P65 protein expression level in substantia nigra at 5 mg/kg, ip pretreated with compound every alternative days followed by rotenone addition and measured after 42 days by ELISA", "format": "functional, organism-based", "details": "time 42.0 day"}, "[32]": {"tested_on": "SH-SY5Y", "assay": "Neuroprotective activity against rotenone-induced cytotoxicity in human SH-SY5Y cells assessed as increase in number of live cells by measuring mean fluorescence intensity", "format": "functional, cell-based"}},
  "note": "Activity calls are given as the source filed them. No cut-off for these calls is given here.",
  "data": [
    {"smiles": "COc1cc(CCC(=O)N2CCCCC2)cc(OC)c1OC(=O)c1ccccn1", "values": [
      {"measurement": "Activity", "setting": "[1]", "value": "Active"},
      {"measurement": "Activity", "setting": "[2]", "value": "Active"},
      {"measurement": "Activity", "setting": "[3]", "value": "Active"},
      {"measurement": "Activity", "setting": "[4]", "value": "Active"},
      {"measurement": "Activity", "setting": "[5]", "value": "Active"},
      {"measurement": "Activity", "setting": "[6]", "value": "Active"},
      {"measurement": "Activity", "setting": "[7]", "value": "Active"},
      {"measurement": "Activity", "setting": "[8]", "value": "Active"},
      {"measurement": "Activity", "setting": "[9]", "value": "Active"},
      {"measurement": "inhibition", "setting": "[10]", "value": "Active"},
      {"measurement": "inhibition", "setting": "[11]", "value": "Active"},
      {"measurement": "remaining at 96 h", "setting": "[12]", "value": 86, "unit": "%"},
      {"measurement": "Activity", "setting": "[13]", "value": "Active"},
      {"measurement": "Activity", "setting": "[14]", "value": "Active"},
      {"measurement": "Activity", "setting": "[15]", "value": "Active"},
      {"measurement": "Activity", "setting": "[16]", "value": "Active"},
      {"measurement": "Activity", "setting": "[17]", "value": "Active"},
      {"measurement": "Activity", "setting": "[18]", "value": "Active"},
      {"measurement": "Activity", "setting": "[19]", "value": "Active"},
      {"measurement": "Activity", "setting": "[20]", "value": "Active"},
      {"measurement": "Activity", "setting": "[21]", "value": "Active"},
      {"measurement": "Activity", "setting": "[22]", "value": "Active"},
      {"measurement": "Activity", "setting": "[23]", "value": "Active"},
      {"measurement": "Activity", "setting": "[24]", "value": "Active"},
      {"measurement": "Activity", "setting": "[25]", "value": "Active"},
      {"measurement": "inhibition", "setting": "[26]", "value": "Active"},
      {"measurement": "Activity", "setting": "[27]", "value": "Active"},
      {"measurement": "Activity", "setting": "[28]", "value": "Active"},
      {"measurement": "Activity", "setting": "[29]", "value": "Active"},
      {"measurement": "Activity", "setting": "[30]", "value": "Non-toxic"},
      {"measurement": "Activity", "setting": "[31]", "value": "Active"},
      {"measurement": "Activity", "setting": "[32]", "value": "Active"}
    ]}
  ]
}
